Our source for the IC50 values is ChEMBL document CHEMBL3259636, “Phenyl carboxamide analogues as spleen tyrosine kinase (syk) inhibitors” (ACS Med Chem Lett, 2014).

This assay addresses Tyrosine-protein kinase SYK (Homo sapiens, UniProt P43405). In words: Inhibition of human recombinant SYK by HTRF assay.
In general, IC50 refers to the point on the concentration scale where inhibition reaches its midpoint. With `NC(=O)c1ccc(N[C@@H]2CCCC[C@@H]2N)cc1Nc1cccc(-c2ccc(F)c(F)c2)n1`, the IC50 was under 1.5 nM. In the case of `Cc1cccc(Nc2cc(N[C@@H]3CCCC[C@@H]3N)ccc2C(N)=O)n1` it was over 1.5 nM; in that of `NC(=O)c1ccc(N[C@@H]2CCCC[C@@H]2N)cc1Nc1cccc(-c2ccccc2)n1`, under 1.5 nM.

Take `NC(=O)c1ccc(N[C@@H]2CCCC[C@@H]2N)cc1Nc1cccc(-c2cccc(F)c2)n1`: the 50% inhibitory concentration (IC50) was under 1.5 nM. The same measure for `COc1ccc(-c2cccc(Nc3cc(N[C@@H]4CCCC[C@@H]4N)ccc3C(N)=O)n2)cc1`: under 1.5 nM.
